In patent US20110086837A1, “COMBINATIONS OF A PI3K INHIBITOR AND A MEK INHIBITOR” (Genentech, Inc., priority 2009, published 2011):

Tests used:
[1] = tested on: NCI-H2122 (NSCLC, KRAS G12C, PI3K/PTEN WT) tumors; experiment: NCI-H2122 xenograft model, tumor growth inhibition; conditions: for sensitivity as single agent: NCI-H2122 xenograft, tumor growth delay, but not stasis or regression
Method: NCI-H2122 cells (10×10^6 in Hanks Balance Salt Solution (HBSS)+Matrigel) were inoculated into nude mice (nu/nu) and tumors were allowed to establish to an average volume of ˜240 mm^3. […] Caliper measurements of animals' tumors and animal weights were taken every 3-4 days throughout the study and tumor volumes were calculated (TV=[L×(W^2)]/2) and plotted +/−SEM. Percent tumor growth inhibition was calculated by calculating the area under the curve (AUC) of each treatment group relative to vehicle control. Student's t-tests were performed on day 21 data to determine significance by p-value.
GDC-0973 and GDC-0941 were used as therapeutic agents in the NCI-H2122 (NSCLC, KRAS^G12C, PI3K/PTEN WT) and A2058 (Melanoma, BRAF^V600E, PTEN^null) xenograft models. […]

MOLM-16 (AML) tumors = experiment: MOLM-16 xenograft model, tumor growth inhibition; format: in vivo, nude mice (nu/nu)
Method: (A) Treatment was then begun dosing Vehicle (open circles)), GDC-0941 (100 mg/kg, QD, PO; filled triangles), GDC-973 (10 mg/kg, QD, PO; filled squares), or the combination of GDC-0941 and GDC-0973 (filled diamonds, solid lines, n=7). […] Treatment was then begun dosing Vehicle (open circles,), GDC-0941 (100 mg/kg, QD, PO; filled triangles), GDC-0973 (5 mg/kg, QD, PO; filled squares), or the combination of GDC-0941 and GDC-0973 (filled diamonds). Caliper measurements of animals' tumors and animal weights were taken every 3-4 days throughout the study and tumor volumes were calculated (TV=[L×(W^2)]/2) and plotted +/−SEM. Percent tumor growth inhibition was calculated by calculating the area under the curve (AUC) of each treatment group relative to vehicle control. Student's t-tests were performed on day 21 data to determine significance by p-value.
MOLM-16 (AML) tumor-bearing animals were treated with either single agent GDC-0973 (10 mg/kg, daily) or GDC-0941 (100 mg/kg, daily) or the combination of the two.

FaDu (HNSCC) tumors = experiment: FaDu xenograft model, tumor growth inhibition; format: in vivo
Method: (A) Treatment was then begun dosing Vehicle (open circles)), GDC-0941 (100 mg/kg, QD, PO; filled triangles), GDC-973 (5 mg/kg, QD, PO; filled squares), or the combination of GDC-0941 and GDC-0973 (filled diamonds, solid lines, n=7). (B) the SKOV-4 (ovarian) Xenograph model. Treatment was then begun dosing Vehicle (open circles,), GDC-0941 (100 mg/kg, QD, PO; filled triangles), GDC-0973 (10 mg/kg, QD, PO; filled squares), or the combination of GDC-0941 and GDC-0973 (filled diamonds). Caliper measurements of animals' tumors and animal weights were taken every 3-4 days throughout the study and tumor volumes were calculated (TV=[L×(W^2)]/2) and plotted +/−SEM. Percent tumor growth inhibition was calculated by calculating the area under the curve (AUC) of each treatment group relative to vehicle control. Student's t-tests were performed on day 21 data to determine significance by p-value.
FaDu (HNSCC) tumor-bearing animals were treated with either single agent GDC-0973 (5 mg/kg, daily) or GDC-0941 (100 mg/kg, daily) or the combination of the two.

[2] = tested on: A2058 (Melanoma, BRAF V600E, PTEN null) tumors; experiment: A2058 xenograft model, tumor growth inhibition; format: in vivo, nude mice (nu/nu); conditions: for sensitivity as single agent: A2058 xenograft, tumor growth delay, but not stasis or regression
Method: A2058 tumor-bearing animals were tested with both moderate and high doses of GDC-0973 (6 and 10 mg/kg, daily) and GDC-0941 (30 and 100 mg/kg, daily) as well as combinations of the lower and higher doses. […] Likewise, A2058 tumors are also moderately sensitive to single agent GDC-0941 with TGIs of 18% at 30 mg/kg and 56% at 100 mg/kg (FIGS. 3A and B, respectively).

SKOV-3 (Ovarian) tumors = experiment: SKOV-3 xenograft model, tumor growth inhibition; format: in vivo; conditions: GDC-0941 single agent, 100 mg/kg daily
Method: (B) the […] (ovarian) Xenograph model.
SKOV-3 (Ovarian) tumor-bearing animals were treated with either single agent GDC-0973 (10 mg/kg, daily) or GDC-0941 (100 mg/kg, daily) or the combination of the two. […] The improved efficacy of the combination was statistically significant versus single agent GDC-0973 and GDC-0941 (p=0.0017 and p=0.0283, respectively, on Day 22).

[3] = GDC-0973 single agent, 10 mg/kg daily
[4] = GDC-0941 single agent, 100 mg/kg daily

SMILES | tumor growth inhibition (TGI, relative to vehicle control) ([1]; GDC-0973 single agent, 5 mg/kg QD arm) | sensitivity as single agent [1] | percent tumor growth inhibition (% TGI) (MOLM-16 (AML) tumors; [3]) | percent tumor growth inhibition (% TGI) (FaDu (HNSCC) tumors; GDC-0973 single agent, 5 mg/kg daily) | sensitivity as single agent [2] | TGI ([2]; GDC-0973 single agent, 6 mg/kg daily) | TGI [2, 3] | tumor growth inhibition (TGI, relative to vehicle control) ([1]; GDC-0941 single agent, 30 mg/kg arm (so in the source)) | percent tumor growth inhibition (% TGI) (MOLM-16 (AML) tumors; [4]) | % TGI (SKOV-3 (Ovarian) tumors) | percent tumor growth inhibition (% TGI) (FaDu (HNSCC) tumors; [4]) | TGI ([2]; GDC-0941 single agent, 30 mg/kg daily) | TGI [2, 4]
O=C(c1ccc(F)c(F)c1Nc1ccc(I)cc1F)N1CC(O)([C@@H]2CCCCN2)C1 [GDC-0973, [3,4-Difluoro-2-(2-fluoro-4-iodo-phenylamino)-phenyl]-((S)-3-hydroxy-3-piperidin-2-yl-azetidin-1-yl)-methanone] | 57% | moderate sensitivity | 57% | 41% | moderate sensitivity | 41% | 62% | – | – | – | – | – | –
CS(=O)(=O)N1CCN(Cc2cc3nc(-c4cccc5[nH]ncc45)nc(N4CCOCC4)c3s2)CC1 [GDC-0941, 4-(2-(1H-indazol-4-yl)-6-((4-(methylsulfonyl)piperazin-1-yl)methyl)thieno[3,2-d]pyrimidin-4-yl)morpholine] | – | moderate sensitivity | – | – | moderate sensitivity | – | – | 73% | 40% | 51% | 33% | 18% | 56%
